In brackets after ≈: the same amount, converted by molar mass. Entries after “also recorded” stand apart in the source; their conditions may differ. Bounds are passed on as bounds.

Data set [1] is described as follows: Reducing power, potassium ferricyanide reduction method. Conditions: four concentrations, 20–80 μg/mL; absorbance at 700 nm; references BHT and quercetin (Figure 3). On the procedure:
The reductive potential of the compounds and standard was determined according to a previously described method. An aliquot of the sample or standard (1.0 mL) at various concentrations (20–80 μg/mL in DMSO) was mixed with phosphate buffer (0.2 mol L^−^1, pH 6.6, 1.25 mL) and 1% potassium ferricyanide (1.25 mL). The mixture was incubated at 50 °C for 20 min. After cooling, 1.25 mL of 10% trichloroacetic acid was added and the mixture incubated at 50 °C for 10 min. 1.25 mL of this solution was mixed with distilled water (1.25 mL) and 0.1% iron(III) chloride (0.25 mL) and the absorbance measured at 700 nm using an appropriate blank. Assays were carried out in triplicate.

Data set [2] has as its target T1, AChE from Electrophorus electricus (Electrophorus electricus, UniProt O42275).
T1 construct: purchased Sigma-Aldrich Chemical Company, St. Louis, MO, USA
The experiment in a line: biochemical. The following applies: for IC50: ± SD, n = 4, read-out: Anti-AChE IC50. It counts as biochemical. On the procedure:
The AChE activity was evaluated using the method described by Ellman et al. and Ingkaninan et al., modified. Briefly, 10 μL of 0.25 U/mL AChE from Electrophorus electricus (Sigma-Aldrich® Chemical Company, St. Louis, MO, USA) was added to the wells containing sample in different concentrations, and allowed to incubate for 5 min. Reaction was started by the addition 5 μL of 3 mM 5,5'-dithiobis[2-nitrobenzoic acid] (DTNB,) and 5 μL of 75 mM acetylthiocholine iodide (ATCI; Fluka Chemicals, Buchs, Switzerland). The absorbance was then read at 415 nm every 2.5 min for 7.5 min in a Bio Rad Model 680 Microplate Reader (Bio-Rad Laboratories, Inc., Hercules, CA, USA). Percentage of enzymatic inhibition was calculated relatively to the control without inhibitor. Every experiment was done in quadruplicate. […] PROGRAM Version 1.4 was used.

The nature of data set [3]: DPPH radical scavenging assay. The following applies: for EC50: concentration of the compound to reduce the DPPH radical concentration to 50%, ± SD; for Radical Scavenging Activity AE (antiradical efficiency): AE = 1/(EC50 × TEC50), TEC50 = time to reach the steady state for the EC50. On the procedure: Antioxidant activity was assayed by the DPPH (1,1-diphenyl-2-picrylhydrazyl) radical scavenging assay using the Blois method modified. […] In each assay, a control was prepared, in which the compound or standard (quercetin and BHT) was substituted by the same amount of solvent. The mixture was shaken vigorously and left to stand for 30 min in the dark, and the absorbance was then measured at 517 nm. The capability to scavenge the DPPH radical was calculated using the following equation: DPPH scavenging activity (%) = [(Ac − As)/Ac] × 100(1) where, Ac is the absorbance of the control and As is the absorbance of the compound or standard. All assays were carried out in triplicate and results expressed as EC50, i.e., as the concentration yielding 50% scavenging of DPPH, calculated by interpolation from the % vs. concentration curve.
Background: Loss of DPPH colour is used to gauge radical scavenging.

The nature of data set [4]: Maximum soluble concentration in the DPPH assay. It counts as physicochemical. The following applies: ethanol (ethanolic solution of the DPPH assay), ethanolic solutions, read-out: maximum concentration at which the compound is soluble.
Description: Antioxidant activity was assayed by the DPPH (1,1-diphenyl-2-picrylhydrazyl) radical scavenging assay using the Blois method modified [24]. Briefly, different volumes of the ethanolic solutions of each compound or standard (1–100 µM) were added fixed volume of DPPH ethanolic solution (400 µL of the solution 0.6 mM) and solvent (ethanol) to obtain, in each case, a fixed total volume. In each assay, a control was prepared, in which the compound or standard (quercetin and BHT) was substituted by the same amount of solvent. The mixture was shaken vigorously and left to stand for 30 min in the dark, and the absorbance was then measured at 517 nm. The capability to scavenge the DPPH radical was calculated using the following equation: DPPH scavenging activity (%) = [(Ac − As)/Ac] × 100(1) where, Ac is the absorbance of the control and As is the absorbance of the compound or standard. All assays were carried out in triplicate and results expressed as EC50, i.e., as the concentration yielding 50% scavenging of DPPH, calculated by interpolation from the % vs. concentration curve.

T1 sequence (O42275 24-633): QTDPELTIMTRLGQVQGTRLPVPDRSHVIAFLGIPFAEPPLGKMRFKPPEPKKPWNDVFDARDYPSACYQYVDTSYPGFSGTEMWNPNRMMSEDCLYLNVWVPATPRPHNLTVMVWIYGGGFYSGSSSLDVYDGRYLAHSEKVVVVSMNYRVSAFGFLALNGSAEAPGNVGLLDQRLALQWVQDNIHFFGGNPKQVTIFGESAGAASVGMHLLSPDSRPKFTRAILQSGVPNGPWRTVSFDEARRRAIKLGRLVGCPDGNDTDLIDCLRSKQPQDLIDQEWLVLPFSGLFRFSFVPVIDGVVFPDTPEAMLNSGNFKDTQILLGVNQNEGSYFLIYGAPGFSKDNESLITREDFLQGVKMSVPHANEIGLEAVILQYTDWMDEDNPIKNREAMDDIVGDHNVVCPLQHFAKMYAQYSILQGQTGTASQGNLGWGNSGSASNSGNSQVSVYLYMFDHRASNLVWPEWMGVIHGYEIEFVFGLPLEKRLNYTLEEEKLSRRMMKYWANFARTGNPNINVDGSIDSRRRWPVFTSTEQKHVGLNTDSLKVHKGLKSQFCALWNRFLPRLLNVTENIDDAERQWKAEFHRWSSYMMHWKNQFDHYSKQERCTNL

In general, IC50 refers to the midpoint of a concentration-inhibition curve. As for `O=C1CC(c2ccccc2)C(=Cc2ccccc2)c2oc3cccc(O)c3c(=O)c21` (centres unmarked) [Compound 5a, (E)-3-Aryl-4-benzylidene-8-hydroxy-3,4-dihydro-1H-xanthene-1,9(2H)-dione], in data set [1], the “Reducing power (reduction of ferric ion)” value is listed as “did not significantly reduce ferric ion”. Moreover, the concentration for half-maximal inhibition (IC50) in data set [2] was more than 381 µM.

As to `Cc1ccc(/C=C2/c3oc4cccc(O)c4c(=O)c3C(=O)CC2c2ccc(C)cc2)cc1` (centres unmarked) [Compound 5b, (E)-8-Hydroxy-4-(4-methylbenzylidene)-3-(4-methylphenyl)-3,4-dihydro-1H-xanthene-1,9(2H)-dione], the IC50 in data set [2] was more than 355 µM.

Usually EC50 stands for the concentration needed to bring the measured effect to its halfway point. The molecule `O=C1CC(c2ccc(O)cc2)C(=Cc2ccc(O)cc2)c2oc3cccc(O)c3c(=O)c21` (centres unmarked) [Compound 5c] came in with a DPPH quenched in data set [3] (at 552 µM, the maximum soluble concentration) of 36%. In data set [3], this molecule registered an EC50 of more than 552 µM. For the same molecule, the “Reducing power (reduction of ferric ion)” value in data set [1] was “did not significantly reduce ferric ion”. In addition, in data set [2], the “Type of AChE inhibition” value is listed as “mixed type inhibition” and the IC50 was determined as 41.1 ± 6.1 µM. Also, the solubility in data set [4] worked out at 552 µM (≈ 235 µg/mL).

Regarding `O=C1CC(c2ccc(Cl)cc2)C(=Cc2ccc(Cl)cc2)c2oc3cccc(O)c3c(=O)c21` (centres unmarked) [Compound 5d], the 50% inhibitory concentration (IC50) in data set [2] is more than 325 µM.

In the case of `O=C1CC(c2ccc(O)c(O)c2)C(=Cc2ccc(O)c(O)c2)c2oc3cccc(O)c3c(=O)c21` (centres unmarked) [Compound 5e, (E)-8-Hydroxy-4-(3,4-dihydroxybenzylidene)-3-(3,4-dihydroxyphenyl)-3,4-dihydro-1H-xanthene-1,9-(2H)-dione], in data set [3], the “Radical Scavenging Activity AE (antiradical efficiency)” value (“Radical Scavenging Activity AE” below) came out at 0.026 and the EC50 stood at 3.79 ± 0.06 µM. In addition, the “Reducing power (reduction of ferric ion)” value in data set [1] is “higher reduction capacity than BHT and similar to quercetin; also recorded: more efficient than BHT and similar to quercetin”. In data set [2], the “Type of AChE inhibition” value is given as “almost pure competitive type inhibition” and the IC50 was found to be 31 ± 0.09 µM.

On to `O=C1CC(c2ccccc2Cl)/C(=C\c2ccccc2Cl)c2oc3cccc(O)c3c(=O)c21` (centres unmarked) [Compound 5f, (E)-4-(2-Chlorobenzylidene)-3-(2-chlorophenyl)-8-hydroxy-3,4-dihydro-1H-xanthene-1,9(2H)-dione], for which the IC50 in data set [2] is more than 325 µM.

On to `O=c1c(O)c(-c2ccc(O)c(O)c2)oc2cc(O)cc(O)c12` [Quercetin, reference compound], for which, in data set [3], the “Radical Scavenging Activity AE” value is 0.0042 and the concentration for a half-maximal effect (EC50) turned out to be 5.97 ± 0.11 µM.

Take `Cc1c(C)c2c(c(C)c1O)CCC(C)(C(=O)O)O2` (centres unmarked) [Trolox, reference compound]: in data set [3], the “Radical Scavenging Activity AE” value came out at 0.011 and the EC50 was 18.7 ± 0.65 µM.

The values above are taken from publication PMC6270872, “Xanthenedione Derivatives, New Promising Antioxidant and Acetylcholinesterase Inhibitor Agents” (Molecules, 2014).
